The record followed here is US20250101436A1, “APTAMERS AND SMALL MOLECULE LIGANDS” (MeiraGTx UK II Limited, priority 2021, published 2025).

Series [1] concerns 12C6-1 riboswitch. Kind of series: Firefly luciferase assay, Luci-12C6-1 riboswitch construct in transfected HEK 293 cells. The series is classed as cell-based, human. The conditions noted are these: Luci-12C6-1, HEK 293, 50 uM Comp. 004. From the text: Riboswitch construct: Aptamers were synthesized by Integrated DNA Technologies, Inc. The synthesized aptamer sequence, here referred to as aptamer sequence 12C6-1, contains a putative TPP aptamer sequence (AP008955.1/944373-944459; CP030117.1/954080-954166; CP023474.1/977011-977097) with C at 5′ end and a complementary G at 3′ end flanking the putative TPP aptamer sequence: […] […] (SEQ ID NO: 1). Golden Gate cloning strategy (New England Biolabs, NEB) was used to clone the synthesized aptamer sequences into an intron-exon-intron cassette to replace the guanine aptamer in the G17 riboswitch cassette (see SEQ ID NO: 15 recited in WO 2016/126747, which is incorporated herein in its entirety) to generate riboswitch construct Luci-12C6-1.

Series [2] has as its system Alishewanella tabrizica thiC aptamer in TPPz riboswitch. In words: Firefly luciferase assay, TPPz riboswitch construct in HEK 293 cells. The series is classed as cell-based, human. The following applies: HEK 293, 50 μM Comp. 004. How it is done: (§1) First, the E. coli thiM TPP aptamer, the aptamer that was used in Weeks' work in generating the Comp. 004, was tested in TPPm riboswitch construct (SEQ ID No. 87 as described in 62/994,135) for its response to Comp. 004 in inducing gene expression. To evaluate whether this novel TPP aptamer binder could bind a different TPP aptamer, TPP aptamer from Alishewanella tabrizica thiC gene (Microbiol Res. 2017 January; 195:71-80) was tested in TPPz riboswitch construct (SEQ ID No. 86 as described in 62/994,135).

The test system of series [3] is E. coli thiM TPP aptamer in TPPm riboswitch. Kind of series: Firefly luciferase assay, TPPm riboswitch construct in HEK 293 cells. The series is classed as cell-based, human. The following applies: HEK 293, 50 μM Comp. 004. Here is the method:
as §1

For series [4], the system named is N4-1C11 riboswitch. In words: Firefly luciferase assay, N4-1C11 riboswitch in HEK 293 cells. The series is classed as cell-based, human. The conditions noted are these: N4-1C11, 0.1 μM Comp. 004.
Description: (§4) Transfection: 3.5×10^4 human embryonic kidney (HEK) 293 cells were plated in a 96-well flat bottom plate the day before transfection. Plasmid DNA (500 ng) was added to a tube or a 96-well U-bottom plate. Separately, TransIT-293 reagent (Mirus; 1.4 L) was added to 50 μL Optimum I media (Life Technologies) and allowed to sit for 5 minutes at room temperature (RT). Then, 50 μL of this diluted transfection reagent was added to the DNA, mixed, and incubated at RT for 20 min. Finally, 7 μL of this solution was added to a well of cells in the 96-well plate. Four hours after transfection, medium containing transfection solution was replaced by medium with either TPP or fursultiamine as aptamer ligands.
(§5) Firefly luciferase assay of cultured cells: Twenty-four hours after media change, plates were removed from the incubator, and equilibrated to RT for several minutes on a lab bench, then aspirated. […] Following a 5 min incubation at RT, luminescence was measured using a Tecan machine with 500 ms read time. The luciferase activity was expressed as mean arbitrary light units (ALU)±S.D., and fold induction was calculated as the quotient of the luciferase activity obtained from cells with TPP or analog compound treatment divided by the luciferase activity obtained from cells without TPP or analog compound treatment.
Series [5] concerns N5-12E5 riboswitch. Kind of series: Firefly luciferase assay, N5-12E5 riboswitch in HEK 293 cells. The series is classed as cell-based, human. The following applies: N5-12E5, 0.1 μM Comp. 004.
Description: as §4, §5
Series [6] has as its system mEpo-12G6 (N5-12G6 riboswitch in mEpo gene). In words: ELISA for mouse erythropoietin, construct mEpo-12G6 in AML12 cells. The series is classed as cell-based. The conditions noted are these: mEpo-12G6, 1.85 μM Comp. 004. From the text: (§2) Riboswitch constructs: The alternative splicing riboswitch cassette containing aptamers N5-12G6 or N4-1C11 was inserted between nucleotide position 307 and 308 in the mouse erythropoietin cDNA sequence, generating constructs mEpo-12G6 and mEpo-1C11. Expression of the erythropoietin gene was driven by CASI promoter. The intron-exon-intron cassette without aptamer sequence was inserted at the same position in the cDNA of mEpo gene to create construct mEpo-Con1, serving as a control for constitutive target gene expression. N5-12G6 riboswitch cassette was inserted between nucleotide position 424 and 425 in the cDNA of human growth hormone (hGH) gene driven under CMV promoter.
(§3) Enzyme-linked immunosorbent assay (ELISA) for mouse erythropoietin (mEpo): AML-12 cells or C2C12 cells were transfected as described in Example 1 with TransIT-X2 transfection reagent (Mirus Bio). Four hours after transfection, the transfected cells were treated with or without Comp. 004 at the indicated doses. The supernatants from the transfected cells were collected 24 hours after compound treatment and were subjected to ELISA for the detection of mEpo in the supernatant following the manufacturer's instruction (R&D).
In general terms: In an ELISA, binding on a coated surface is turned into a signal by an enzyme label.

Series [7] concerns mEpo-1C11 (N4-1C11 riboswitch in mEpo gene). Kind of series: ELISA for mouse erythropoietin, construct mEpo-1C11 in AML12 cells. The series is classed as cell-based. The following applies: mEpo-1C11, 1.85 μM Comp. 004.
Description: as §2, §3

For series [8], the system named is riboswitch regulatable mEpo constructs. In words: ELISA for mouse erythropoietin, riboswitch regulatable mEpo constructs in C2C12 cells. The series is classed as cell-based.
Description: as §2, §3

Series [9] concerns hGH-12G6 (N5-12G6 riboswitch in hGH gene). Kind of series: ELISA for human growth hormone, hGH-12G6 construct in HEK 293 cells. The series is classed as cell-based. The conditions noted are these: HEK 293, hGH-12G6, 3.1 μM Comp. 004.
Description: as §2
ELISA for human growth hormone (hGH): HEK 293 cells were transfected as described in Example 1 with TransIT-293 transfection reagent (Mirus Bio). Four hours after transfection, the transfected cells were treated with or without Comp. 004 at the indicated doses. The supernatants from the transfected cells were collected 24 hours after Comp. 004 treatment and were subjected to ELISA for the detection of hGH in the supernatant following the manufacturer's instruction (R&D Systems).

In series [10] the test system is AAV8.mEpo.12G6 mEpo expression. In words: Serum mouse Epo ELISA in mice injected in the muscle with AAV8.mEpo.12G6, oral Comp. 004. The series is classed as in vivo. The following applies: 1×10^11 GC AAV8 in the muscle, 30 mg/kg oral. Here is the method: For regulated mouse erythropoietin (mEpo) study, each female Balb/c mouse was injected in the quadricep muscle with 1.0×10^11, 5×10^10, 1×10^10, or 5×10^9 GC of AAV8 vectors containing riboswitch N5-12G6 regulated mEpo gene (AAV8.mEpo.12G6). 5 weeks post AAV injection, mice were treated with Comp. 004 formulated in 0.5% methylcellulose (MC): 0.25% Tween® 80 in deionized (DI) water via oral gavage. 16 hours post oral dosing, mice were subjected to submandibular blood collection. 10 fold diluted serum was used to measure mouse serum Epo using ELISA (Invitrogen).

Series [11] deals with hematocrit of anemic mice. Kind of series: Hematocrit in mouse model of chronic kidney disease (CKD)-associated anemia with AAV8.mEpo.12G6. The series is classed as in vivo. The conditions noted are these: for hematocrit: 300 mg/kg for 15 days and 10 doses. Here is the method: Chronic kidney disease-associated anima: male C57Bl/6 mice were injected intramuscularly with 2.5×10^10 vg or 1.0×10^10 vg of AAV8.mEpo.12G6 per mouse. One week post AAV injection, mice were treated daily with 50 mg/kg adenine (Sigma) via oral gavage for total 28 treatment in 5 weeks. Hematocrit was measured after Adenine treatment and before small molecule inducer treatment and monitored every 7 to 10 days post daily small molecule inducer oral dosing.

Series [12] has as its system hPTH-12G6 (N5-12G6 riboswitch in hPTH gene). In words: ELISA for human PTH, hPTH-12G6 construct in HEK 293 cells. The series is classed as cell-based. The following applies: HEK 293, hPTH-12G6. The text has this:
Riboswitch constructs: Alternative splicing riboswitch cassette containing aptamers N5-12G6 was inserted between nucleotide position 181 and 182 in human parathyroid hormone (hPTH) cDNA sequence, generating constructs hPTH-12G6. Expression of the erythropoietin gene was driven by CASI promoter.
Enzyme-linked immunosorbent assay (ELISA) for human PTH: HEK 293 cells were transfected as described in Example 1 with TransIT-293 transfection reagent (Mirus Bio). Four hours after transfection, the transfected cells were treated with or without Compound 004 at the indicated doses. The supernatants from the transfected cells were collected 48 hours after compound treatment and were subjected to ELISA for the detection of human PTH in the supernatant following the manufacturer's instruction (Abcam).

For series [13], the system named is AAV9.hPTH-12G6 hPTH expression. Kind of series: hPTH production and serum calcium in mice injected intramuscularly with AAV9.hPTH-12G6, oral Comp. 004. The series is classed as in vivo. The conditions noted are these: oral 30, 100 or 300 mg/kg for 3 days. Here is the method: AAV2.9 viral particle production: The AAV9 particles used for the transduction of mice comprised a viral genome derived from AAV2 (ITR) and a capsid derived from AAV9. The hPTH-12G6 was cloned into AAV plasmid backbone with CASI promoter, and the AAV plasmid was packaged into AAV9 capsid, generating vector AAV9.hPTH-12G6 (Signagen)
Animal study: C57BL/6 mice were injected intramuscularly with AAV9.hPTH-12G6 at 2.5×10^11 viral genome (VG) per mouse of the AAV9 viral particle into both quadriceps. Compound 004 was formulated in 0.5% methylcellulose (MC): 0.25% Tween® 80 in deionized (DI) water for oral administration. 30 days after AAV vector delivery, mice were treated orally via oral gavage with 0 mg/kg, 30 mg/kg, 100 mg/kg or 300 mg/kg Comp. 004 for 3 days.

Series [14] deals with N5-12G6 riboswitch. Kind of series: Firefly luciferase assay, N5-12G6 riboswitch in HEK293 cells. The conditions noted are these: N5-12G6, 0.1 μM Comp. 004.
Description: as §4
Firefly luciferase assay of cultured cells: Twenty-four hours after media change, plates were removed from the incubator, and equilibrated to RT for several minutes on a lab bench, then aspirated. Glo-lysis buffer (Promega, 100 μL, RT) was added, and the plates allowed to remain at RT for at least 5 minutes. Then, the well contents were mixed by 50 μL trituration, and 20 μL of each sample was mixed with 20 μL of bright-glo reagent (Promega) that had been diluted to 10% in glo-lysis buffer. 96 wells were spaced on an opaque white 384-well plate. Following a 5 min incubation at RT, luminescence was measured using a Tecan machine with 500 ms read time. The luciferase activity was expressed as mean arbitrary light units (ALU)±S.D., and fold induction was calculated as the quotient of the luciferase activity obtained from cells with TPP or analog compound treatment divided by the luciferase activity obtained from cells without TPP or analog compound treatment.

Structures are written as SMILES.

Regarding `c1cc(N2CCNCC2)c(NCc2ccc3nccnc3c2)cn1` [Comp. 004], the “fold increase in luciferase expression” value in series [1] is given as 360 fold; in series [2], 26 fold; in series [4], 16 fold; in series [5] it was 8 fold; in series [14], 36 fold. For the same molecule, the “increase in luciferase expression” value in [3] is reported as 4.1. Also, the “fold induction of mEpo expression” value is “about 148 fold” in [6] and ~71 fold in series [7]. Besides, in [8], the mEpo expression entry is on record as “induced upon treatment of Comp. 004 in a dose dependent manner”. Besides, in [9], the “fold of the hGH expression from cells without compound treatment” value was “approximately 243 fold”. In [9], this molecule returned a hGH expressed of 202 ng/mL. Further, the “serum vector-expressed mEpo” value in series [10] is listed as “elevated”. In addition, the hematocrit result in series [11] (AAV 1×10^10 vg per mouse) is “restored to normal level”; in [11] (AAV 2.5×10^10 vg per mouse) it was “exceeded the normal hematocrit level”. Moreover, in [11] (after 20 oral doses, biggest increase in the 100 mg/kg dose group), the “hematocrit of anemic mice” value is on record as “increased”. In series [12], the hPTH expression result is “dose dependent manner”. Besides, the “production of hPTH in mice” value in [13] is recorded as “induced dose-dependent production of hPTH”. Besides, in [13], the serum calcium concentration result is reported as “increase in the serum calcium concentration”.
